Source: article PMC4687057, “The function of phosphatidylinositol 5-phosphate 4-kinase γ (PI5P4Kγ) explored using a specific inhibitor that targets the PI5P-binding site” (Biochemical Journal, 2015)

What was measured:
[1] = biological target: T1, PI5P4Kγ+ (E378H,I159V,D161V) mutant (Homo sapiens, UniProt Q8TBX8, D161V/E153T/I159V/Q378H); test: […] lipid kinase assay, % inhibition at […]; assay type: biochemical
T1 construct: gene PIP4K2C
T1 sequence (Q8TBX8 2-421 E153T/I159V/D161V/Q378H): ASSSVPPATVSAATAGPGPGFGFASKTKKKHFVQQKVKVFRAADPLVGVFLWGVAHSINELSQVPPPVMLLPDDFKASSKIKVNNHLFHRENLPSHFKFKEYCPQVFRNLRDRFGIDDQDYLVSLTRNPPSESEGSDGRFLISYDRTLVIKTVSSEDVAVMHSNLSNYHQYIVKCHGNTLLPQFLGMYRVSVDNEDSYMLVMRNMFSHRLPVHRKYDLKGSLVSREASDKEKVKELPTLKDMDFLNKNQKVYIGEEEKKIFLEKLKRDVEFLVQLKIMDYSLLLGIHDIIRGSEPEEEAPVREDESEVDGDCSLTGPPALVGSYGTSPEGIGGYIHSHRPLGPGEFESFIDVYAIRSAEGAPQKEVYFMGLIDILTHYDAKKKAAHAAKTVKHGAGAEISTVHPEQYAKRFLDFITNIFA

[2] = biological target: T2, phosphatidylinositol 5-phosphate 4-kinase γ (PI5P4Kγ) (Homo sapiens, UniProt Q8TBX8); test: HDX-MS with purified protein; IC50 from […]P lipid kinase assay on recombinant enzyme; assay type: biochemical
T2 construct: gene PIP4K2C; PI5P4Kγ from GST fusion (pGEX6P), GST cleaved with PreScission protease
T2 sequence (Q8TBX8 2-421): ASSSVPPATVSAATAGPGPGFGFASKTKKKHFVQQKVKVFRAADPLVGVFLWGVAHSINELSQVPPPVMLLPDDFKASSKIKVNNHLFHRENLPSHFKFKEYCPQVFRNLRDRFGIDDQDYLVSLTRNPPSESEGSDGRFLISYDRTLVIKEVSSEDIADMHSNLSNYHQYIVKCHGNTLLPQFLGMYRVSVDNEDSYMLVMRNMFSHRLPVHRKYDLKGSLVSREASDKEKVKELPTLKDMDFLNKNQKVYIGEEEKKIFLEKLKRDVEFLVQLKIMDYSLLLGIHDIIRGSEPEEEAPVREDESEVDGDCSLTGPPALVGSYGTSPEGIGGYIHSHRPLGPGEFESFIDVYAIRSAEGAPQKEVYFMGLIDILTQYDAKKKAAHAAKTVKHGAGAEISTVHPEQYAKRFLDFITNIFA

FC(F)(F)c1ccccc1-c1nc(NCc2cccs2)c2ccccc2n1 [compound 1, NIH-12848]
inhibition at 10 µM [1]: 71%
IC50 [2]: 3.3 µM
